In patent US10323019B2, “Pyrazolylaminobenzimidazole derivatives as JAK inhibitors” (Eli Lilly and Company, priority 2016, dated 2019):

Key:
JAK1 [1] = target: T1, JAK1 (Homo sapiens (Human), UniProt P23458); assay: Human whole blood assay: pSTAT3 (JAK1) in lymphocytes, IL6 stimulated; assay type: cell-based; details: IL6, pSTAT3 in CD4+ lymphocytes
Text: Human Whole Blood Assays: Determination of pSTAT3 (JAK1) and pSTAT5 (JAK2) in Lymphocytes and Monocytes
Human whole blood (HWB) assays were developed and validated to determine the JAK1 and JAK2 selectivity of test compounds.
Dilute the test compounds, 10 points, (1:3) in DMSO 100% and a step down in PBS+0.1% BSA. Use Tofacitinib as a reference compound in each plate, as well as a maximum signal (stimulated wells) and a minimum signal (no stimulated wells) in order to normalize data. Obtain a pool of HWB from 4 different healthy donors. Plate the blood in a 96 well plate using a Tecan Evo 96w and incubate with test compounds for 1 h at RT. After this time of incubation, stimulate HWB with both IL6 (206-IL, R&D System) and GM-CSF (PHC2015, Life Technologies) for 15 more minutes. Add a viability dye (65-0865, eBiosicience) (1:1000) using a Tecan Evo 96w (5×mix).
The final concentrations in the assay are the following: 100 (μM for compounds, 50 μM for Tofacitinib, 0.1 μg/mL IL6, 0.038 μg/mL GM-CSF and 1% DMSO. Lyse and fix HWB using a Lyse/fix buffer (558049, Becton Dickinson) by adding 900 μL of lysis buffer using Tecan Evo 96w (mix 10× high speed). Incubate HWB in bath at 37° C. for 10 minutes. Centrifuge HWB at 500 G, 8 min and discard supernatant. Add cold MeOH using a Tecan Exo 96w in order to permeabilize cells. Incubate blood cells on ice during 30 min. After this, wash cells 2× using Staining buffer (554656, Becton Dickinson), spin at 3000 rpm, 2 min. discard supernatant, and add the following antibodies: Anti-Human CD4 PE, 1:100 (12-0048, eBioscience), Anti-Human CD33 eFluor® 450, 1:50 (48-0337, eBioscience), Phospho-STAT5 (Tyr694) (C71E5) Rabbit mAb, 1:100 (Alexa Fluor® 488 Conjugate) (3939, Cell Signaling) and Phospho-STAT3 (Tyr705) (D3A7) XP™ Rabbit mAb 1:200, (Alexa Fluor® 647 Conjugate) (4324, Cell Signaling). Incubate the antibodies for 1 h in dark at RT, then wash cells 2× and read on Cytometer Macsquant (Miltenyi Biotec). Gate the data on CD4+ (lymphocytes) and CD4Low CD33Hi (monocytes), to measure the fluorescence intensity from cells expressing pSTAT3 and pSTAT5, respectively. Analyze the data using FlowJo v 10 and then normalize the median of fluorescence versus maximum and minimum signal to determine the IC50s. Use Graph Pad Prism 5™ to represent the dose response curves.

JAK2 = JAK2 (Homo sapiens (Human), UniProt O60674); assay: JAK LanthaScreen Kinase Assay (TR-FRET), JAK2 in vitro enzyme assay; assay type: biochemical; details: 5 μM ATP
Protocol: (§1) The JAK LanthaScreen™ Kinase Assay (Invitrogen) is used to determine the ability of test compounds to inhibit JAK1, JAK2, and JAK3 kinase activity. These are TR-FRET assay formats that use long-lifetime terbium labeled antibody as the donor species and GFP-STAT1 as the acceptor species. Use the TR-FRET ratio to monitor JAK kinase activity where an increase in phosphorylation of the GFP-STAT1 results in an increase in the TR-FRET ratio. Perform the kinase reaction using a 12.5 μl reaction volume in shallow black 384-well Proxiplate®. Add reagents to obtain final reaction conditions of […], 1.76 mM Triton X-100, ATP (20.0 μM for JAK1 and JAK3 or 5 μM for JAK2) enzyme assays, 10.0 mM MgCl2, 1 mM EGTA and 0.01% Brij-35, […] GFP-STAT1, 14 nM JAK1 enzyme for JAK1, 1.0 nM for JAK2 or 2.5 nM for JAK3 enzyme assays, and 4% DMSO and serial dilutions of test compound (diluted 1:3 from 20,000 to 1 nM). Following ATP/GFP-STAT1 addition, centrifuge the assay plates for 1 minute at 1000 revolutions per minute (RPM). Allow the plates to incubate at RT for 60 minutes and then add 12.5 μl of a stopping buffer containing 20 mM EDTA, 2 nM Terbium-anti-phosphorylated Signal Transducers and Activators of Transcription [phosphorylation Tyrosine 701 amino acid] […] Use ACTIVITYBASE® 4.0 to fit the percent inhibition and ten-point compound concentration data to a four-parameter logistic equation.

JAK3 = JAK3 (Homo sapiens (Human), UniProt P52333); assay: JAK LanthaScreen Kinase Assay (TR-FRET), JAK3 in vitro enzyme assay; assay type: biochemical; details: 20.0 μM ATP
Protocol: as §1

JAK1 [2] = target: T1, JAK1; assay: AlphaScreen SureFire p-STAT3-(p-Tyr705)-IL6-TF-1-JAK1 cell-based assay; details: TF-1 cells, IL6 30 ng/mL, pSTAT3
Protocol: AlphaScreen SureFire Protocol p-STAT3-(p-Tyr705)-IL6-TF-1-JAK1 Cell-Based Assay
The JAK1 cell based assay described below is used to determine the JAK1 cellular potency of test compounds.
Cell preparation: Starve TF-1 cells in DMEM medium with 0.5% […] and 1× Pen/Strep at 37° C. Plate 100K cells per well in BD 96 well black plates with clear bottoms. Maintain the plates at RT for 30-60 minutes before incubating overnight at 37° C., and 5% CO2. Count cells using Vi-Cell counter, using a cell suspension at […] and plated 100 μL/well in […] Biocoat plates (Catalog #354640).
Test compound preparation and treatment: Prepare compounds at 1:3 serial dilutions in DMSO and further dilute into the medium. Test compounds in a range of 10 point concentrations from 20,000 to 1 nM. Add diluted compound to corresponding cell plates. Incubate the plates at 37° C. for 20 min. Add IL6 solution at the final concentration 30 ng/mL to corresponding cell plates and continue to incubate at 37° C. for 30 min. Remove media and add 50 μL 1× lysis buffer to each well.
pSTAT3 detection: Perform the following steps sequentially: make acceptor mix (activation buffer/reaction buffer/acceptor beads); transfer 4 μL lysate from 96 well plates to 384 well-Proxiplates; add 5 μL acceptor mix to 384 proxiplate plate(s) and seal plates with aluminum seal; shake 1-2 minutes on plate shaker; incubate plate at RT for 2 hr with gentle shaking; make donor mix (donor beads in dilution buffer); add 2 μL donor mix to assay plates; seal plates with aluminum seal; shake 1-2 minutes on plate shaker; incubate at RT for 2 hr with gentle shaking; read plate with Envision; protocol AlphaScreen Surefire 384.

T1 sequence (P23458 whole entry): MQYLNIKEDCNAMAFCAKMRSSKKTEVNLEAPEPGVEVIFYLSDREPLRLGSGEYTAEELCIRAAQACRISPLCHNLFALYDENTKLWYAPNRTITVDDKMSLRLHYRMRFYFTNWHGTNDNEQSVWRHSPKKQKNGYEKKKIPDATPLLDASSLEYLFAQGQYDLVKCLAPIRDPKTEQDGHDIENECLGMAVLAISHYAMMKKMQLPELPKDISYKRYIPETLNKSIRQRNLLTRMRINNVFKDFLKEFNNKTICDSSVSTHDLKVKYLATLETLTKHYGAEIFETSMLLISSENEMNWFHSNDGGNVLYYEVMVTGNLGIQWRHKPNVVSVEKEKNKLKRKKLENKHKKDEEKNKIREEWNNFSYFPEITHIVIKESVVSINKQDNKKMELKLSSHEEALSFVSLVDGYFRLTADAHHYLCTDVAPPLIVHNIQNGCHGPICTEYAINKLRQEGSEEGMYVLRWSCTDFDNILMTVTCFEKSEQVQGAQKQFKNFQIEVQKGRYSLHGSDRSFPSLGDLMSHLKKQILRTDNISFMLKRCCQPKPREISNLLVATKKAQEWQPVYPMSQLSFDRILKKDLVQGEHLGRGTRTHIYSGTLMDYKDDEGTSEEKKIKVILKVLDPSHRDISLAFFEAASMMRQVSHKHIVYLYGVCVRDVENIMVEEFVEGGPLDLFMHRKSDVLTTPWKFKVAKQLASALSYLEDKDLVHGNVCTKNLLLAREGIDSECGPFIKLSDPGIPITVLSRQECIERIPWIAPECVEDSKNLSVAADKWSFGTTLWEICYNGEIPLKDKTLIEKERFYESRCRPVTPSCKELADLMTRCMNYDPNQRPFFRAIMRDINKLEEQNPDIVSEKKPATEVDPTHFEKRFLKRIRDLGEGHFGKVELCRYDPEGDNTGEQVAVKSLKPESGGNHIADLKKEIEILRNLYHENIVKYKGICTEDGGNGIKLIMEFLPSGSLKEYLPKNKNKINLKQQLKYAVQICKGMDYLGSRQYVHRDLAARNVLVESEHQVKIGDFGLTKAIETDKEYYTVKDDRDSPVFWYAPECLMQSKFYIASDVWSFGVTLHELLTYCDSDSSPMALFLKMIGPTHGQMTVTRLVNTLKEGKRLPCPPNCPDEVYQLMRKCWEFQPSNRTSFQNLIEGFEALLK
Sequence of JAK2 (O60674 whole entry): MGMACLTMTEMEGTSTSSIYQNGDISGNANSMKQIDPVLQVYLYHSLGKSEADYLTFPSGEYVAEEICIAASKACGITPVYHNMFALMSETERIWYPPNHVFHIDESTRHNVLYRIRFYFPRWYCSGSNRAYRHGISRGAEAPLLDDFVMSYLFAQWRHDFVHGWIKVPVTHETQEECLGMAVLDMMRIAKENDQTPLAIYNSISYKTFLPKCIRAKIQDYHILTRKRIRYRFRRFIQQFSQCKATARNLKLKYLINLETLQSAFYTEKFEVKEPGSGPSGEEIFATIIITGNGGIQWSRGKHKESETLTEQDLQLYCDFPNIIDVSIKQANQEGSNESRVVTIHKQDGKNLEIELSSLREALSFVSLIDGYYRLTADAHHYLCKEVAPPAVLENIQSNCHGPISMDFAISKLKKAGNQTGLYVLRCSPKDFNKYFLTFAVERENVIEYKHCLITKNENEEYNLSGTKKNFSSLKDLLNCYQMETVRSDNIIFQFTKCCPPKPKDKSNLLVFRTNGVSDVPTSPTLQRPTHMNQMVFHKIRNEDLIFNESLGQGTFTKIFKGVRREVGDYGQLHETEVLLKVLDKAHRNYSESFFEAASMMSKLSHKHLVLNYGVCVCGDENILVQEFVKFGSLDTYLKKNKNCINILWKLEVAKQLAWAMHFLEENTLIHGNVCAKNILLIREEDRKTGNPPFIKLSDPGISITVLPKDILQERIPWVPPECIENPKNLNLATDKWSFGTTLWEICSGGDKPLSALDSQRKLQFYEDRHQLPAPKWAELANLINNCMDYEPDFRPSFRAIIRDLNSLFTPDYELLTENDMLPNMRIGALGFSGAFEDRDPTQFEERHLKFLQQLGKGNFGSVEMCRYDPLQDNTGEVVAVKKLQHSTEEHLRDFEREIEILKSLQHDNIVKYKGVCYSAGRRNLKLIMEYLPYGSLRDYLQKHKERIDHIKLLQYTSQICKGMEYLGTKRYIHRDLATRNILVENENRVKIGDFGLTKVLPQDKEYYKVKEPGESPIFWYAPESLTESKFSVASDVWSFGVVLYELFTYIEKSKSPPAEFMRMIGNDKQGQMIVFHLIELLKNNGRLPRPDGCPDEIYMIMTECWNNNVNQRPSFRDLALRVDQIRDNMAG
Sequence of JAK3 (P52333 whole entry): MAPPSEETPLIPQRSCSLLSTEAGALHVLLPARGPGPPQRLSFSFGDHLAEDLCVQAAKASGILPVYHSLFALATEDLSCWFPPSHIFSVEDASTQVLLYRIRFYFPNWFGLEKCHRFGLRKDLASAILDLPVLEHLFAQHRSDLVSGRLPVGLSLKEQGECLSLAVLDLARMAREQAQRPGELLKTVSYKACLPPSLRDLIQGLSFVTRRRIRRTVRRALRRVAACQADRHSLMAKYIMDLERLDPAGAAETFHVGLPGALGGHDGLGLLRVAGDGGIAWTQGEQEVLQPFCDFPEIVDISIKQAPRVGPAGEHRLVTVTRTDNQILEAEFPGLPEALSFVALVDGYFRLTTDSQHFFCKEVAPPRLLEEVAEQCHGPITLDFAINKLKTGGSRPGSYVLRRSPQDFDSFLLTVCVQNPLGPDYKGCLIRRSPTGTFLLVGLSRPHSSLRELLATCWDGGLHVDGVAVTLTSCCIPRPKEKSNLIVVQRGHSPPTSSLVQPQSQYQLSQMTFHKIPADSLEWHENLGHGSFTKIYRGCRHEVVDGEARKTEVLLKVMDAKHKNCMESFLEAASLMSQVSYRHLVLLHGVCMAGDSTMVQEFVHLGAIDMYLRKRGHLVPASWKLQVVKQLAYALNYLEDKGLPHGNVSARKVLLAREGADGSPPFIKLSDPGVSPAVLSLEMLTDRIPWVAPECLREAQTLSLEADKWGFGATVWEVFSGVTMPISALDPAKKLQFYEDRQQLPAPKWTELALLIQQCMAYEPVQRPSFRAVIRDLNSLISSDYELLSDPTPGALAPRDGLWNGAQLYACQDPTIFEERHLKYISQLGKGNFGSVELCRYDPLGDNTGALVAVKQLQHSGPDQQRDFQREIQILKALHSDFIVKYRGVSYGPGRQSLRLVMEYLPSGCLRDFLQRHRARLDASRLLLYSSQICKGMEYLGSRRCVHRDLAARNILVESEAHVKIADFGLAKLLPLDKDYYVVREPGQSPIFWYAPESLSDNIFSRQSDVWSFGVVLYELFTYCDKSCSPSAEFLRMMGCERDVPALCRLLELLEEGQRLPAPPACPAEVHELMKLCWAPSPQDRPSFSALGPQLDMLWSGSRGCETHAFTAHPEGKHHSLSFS

With `COc1cc(Nc2cc(O[C@H]3CC[C@@H](NC[C@@H](O)C(F)(F)F)CC3)cc3c2ncn3C)nn1C` [Example 6, (2R)-1,1,1-Trifluoro-3-{[cis-4-({4-[(5-methoxy-1-methyl-1H-pyrazol-3-yl)amino]-1-methyl-1H-benzimidazol-6-yl}oxy)cyclohexyl]amino}propan-2-ol] the IC50 (JAK1 [1]) was 3650 ± 790 nM, the IC50 (JAK2) was 768 ± 220 nM and the IC50 (JAK3) was 2540 ± 510 nM. The IC50 (JAK1 [2]) was 0.168 ± 0.09 nM.
